Reference: US20160187553A1, “METHOD OF MANUFACTURING POLARIZING PLATE, POLARIZING PLATE MANUFACTURED USING THE METHOD, AND LIQUID CRYSTAL DISPLAY DEVICE” (Konica Minolta, Inc., priority 2010, published 2016)
Read-outs that look alike come from different tables or passages of the source.

Key:
[1] = logP of additives A and B of the protective films
[2] = reference liquid; cited from earlier work

Row | logP [1] | SMILES | logP ([1]; additive of protective film) | γLd [2] | γLh [2] | γLp [2]
1 | – | O=P(Oc1ccccc1)(Oc1ccccc1)Oc1ccccc1-c1ccccc1 [BDP, Biphenyldiphenyl phosphate] | 7.3 | – | – | –
2 | 2.3 | CCOC(=O)COC(=O)c1ccccc1C(=O)OCC [EPEG, Ethylphthalyl ethylglycolate] | – | – | – | –
3 | 7.9 | CCC(COC(=O)c1ccccc1)(COC(=O)c1ccccc1)COC(=O)c1ccccc1 [Compound 16] | – | – | – | –
4 | – | C[N+](=O)[O-] [nitromethane] | – | 18.3 mN/m | 0.0 mN/m | 17.7 mN/m
5 | – | ICI [diiodomethane] | – | 51.0 mN/m | 0.0 mN/m | 0.0 mN/m
6 | – | O [water] | – | 30.4 mN/m | 42.4 mN/m | 0.0 mN/m
7 | 9.9 | O=C(OCC(COC(=O)c1ccccc1)(COC(=O)c1ccccc1)COC(=O)c1ccccc1)c1ccccc1 [PETB, pentaerythritol-tetrabenzoate] | – | – | – | –

Row | SMILES | logP [1] | logP ([1]; additive of protective film) | γLd [2] | γLh [2] | γLp [2]
8 | O=P(Oc1ccccc1)(Oc1ccccc1)Oc1ccccc1 [TPP, Triphenyl phosphate] | 5.6 | – | – | – | –
